In patent publication US9434711B2 (Janssen Pharmaceutica, NV, priority 2007, dated 2016):
pIC50: −log10 of the molar value.

Target: canine TRPM8 (Canis lupus familiaris, UniProt Q1A7N1)
Assay: In Vitro Canine TRPM8 Functional Assay (Ca2+ fluorescence, icilin activation)
Assay type: cell-based
Conditions: for pIC50: HEK293 cells stably expressing canine TRPM8, icilin activation, eight-point dose-response, read-out: IC50; for inhibition at 0.5 µM: compound at 0.5 μM, read-out: % Inh @ 0.5; for inhibition at 0.5 µM / inhibition at 0.2 µM: canine TRPM8, icilin activation; for inhibition at 0.2 µM: compound at 0.2 μM, read-out: % Inh @ 0.2
Method in brief: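 Canine TRPM8 stably expressed in HEK293; compound added 5 min before icilin challenge (~80% max response), with fluorescent Ca2+ signal tracked throughout.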

Chain of canine TRPM8 (Q1A7N1 1-1104): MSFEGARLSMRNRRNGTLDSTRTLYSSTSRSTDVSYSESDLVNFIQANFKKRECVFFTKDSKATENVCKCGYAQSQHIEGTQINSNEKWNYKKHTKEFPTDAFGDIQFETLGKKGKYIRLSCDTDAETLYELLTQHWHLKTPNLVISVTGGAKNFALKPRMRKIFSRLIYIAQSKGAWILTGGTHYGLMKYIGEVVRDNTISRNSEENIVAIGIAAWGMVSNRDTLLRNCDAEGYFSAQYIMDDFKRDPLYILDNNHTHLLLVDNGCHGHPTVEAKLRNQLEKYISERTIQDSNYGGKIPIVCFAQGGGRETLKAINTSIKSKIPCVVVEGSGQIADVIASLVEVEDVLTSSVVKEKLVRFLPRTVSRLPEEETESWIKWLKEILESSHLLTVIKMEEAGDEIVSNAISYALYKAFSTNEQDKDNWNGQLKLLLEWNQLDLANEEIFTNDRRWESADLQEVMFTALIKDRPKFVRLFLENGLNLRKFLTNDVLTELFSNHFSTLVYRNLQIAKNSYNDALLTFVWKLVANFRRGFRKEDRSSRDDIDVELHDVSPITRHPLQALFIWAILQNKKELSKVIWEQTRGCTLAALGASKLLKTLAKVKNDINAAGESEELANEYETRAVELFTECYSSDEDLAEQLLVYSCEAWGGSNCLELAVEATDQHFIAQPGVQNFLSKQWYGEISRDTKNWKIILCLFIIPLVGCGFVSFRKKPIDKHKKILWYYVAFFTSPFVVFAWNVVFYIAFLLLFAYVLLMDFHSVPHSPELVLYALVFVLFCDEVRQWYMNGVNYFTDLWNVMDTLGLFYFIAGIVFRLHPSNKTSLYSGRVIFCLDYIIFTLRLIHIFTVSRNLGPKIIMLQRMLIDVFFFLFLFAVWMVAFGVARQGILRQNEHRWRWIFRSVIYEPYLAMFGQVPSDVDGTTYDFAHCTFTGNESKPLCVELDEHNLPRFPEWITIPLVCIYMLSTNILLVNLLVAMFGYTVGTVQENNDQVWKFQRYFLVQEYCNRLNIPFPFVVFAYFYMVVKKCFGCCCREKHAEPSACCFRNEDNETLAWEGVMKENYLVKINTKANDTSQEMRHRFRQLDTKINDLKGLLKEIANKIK

| pIC50 | inhibition at 0.5 µM | inhibition at 0.2 µM | SMILES |
| --- | --- | --- | --- |
| 7.50 | 97% |  | COc1ccc(CN(c2sc3ccccc3c2Br)S(=O)(=O)c2ccccc2)cc1 [Compound 164, N-(3-Bromo-benzo[b]thiophen-2-yl)-N-(4-methoxy-benzyl)-benzenesulfonamide] |
| 8.43 | 98% |  | COc1ccc(CN(c2sc3ccccc3c2Br)S(=O)(=O)c2ccccc2)cc1Br [Compound 165, N-(3-Bromo-benzo[b]thiophen-2-yl)-N-(3-bromo-4-methoxy-benzyl)-benzenesulfonamide] |
| 7.94 | 94% |  | O=S(=O)(c1ccccc1)N(Cc1ccccc1F)c1sc2ccccc2c1Br [Compound 166, N-(3-Bromo-benzo[b]thiophen-2-yl)-N-(2-fluoro-benzyl)-benzenesulfonamide] |
|  | 101% |  | O=[N+]([O-])c1cccc(CN(c2sc3ccccc3c2Br)S(=O)(=O)c2ccccc2)c1 [Compound 167, N-(3-Bromo-benzo[b]thiophen-2-yl)-N-(3-nitro-benzyl)-benzenesulfonamide] |
| 7.67 | 98% |  | O=S(=O)(c1ccccc1)N(Cc1cccnc1)c1sc2ccccc2c1Br [Compound 169, N-(3-Bromo-benzo[b]thiophen-2-yl)-N-(pyridin-3-ylmethyl)-benzenesulfonamide] |
| 7.35 | 97% |  | O=S(=O)(c1ccccc1)N(Cc1ccncc1)c1sc2ccccc2c1Br [Compound 170, N-(3-Bromo-benzo[b]thiophen-2-yl)-N-(pyridin-4-ylmethyl)-benzenesulfonamide] |
| 7.71 | 100% |  | O=[N+]([O-])c1ccccc1CN(c1sc2ccccc2c1Br)S(=O)(=O)c1ccccc1 [Compound 171, N-(3-Bromo-benzo[b]thiophen-2-yl)-N-(2-nitro-benzyl)-benzenesulfonamide] |
| 7.95 | 98% |  | O=S(=O)(c1ccccc1)N(Cc1ccccc1OC(F)(F)F)c1sc2ccccc2c1Br [Compound 172, N-(3-Bromo-benzo[b]thiophen-2-yl)-N-(2-trifluoromethoxy-benzyl)-benzenesulfonamide] |
| 8.08 | 99% |  | O=S(=O)(c1ccccc1)N(Cc1cccc(OC(F)(F)F)c1)c1sc2ccccc2c1Br [Compound 173, N-(3-Bromo-benzo[b]thiophen-2-yl)-N-(3-trifluoromethoxy-benzyl)-benzenesulfonamide] |
| 8.34 | 97% |  | O=S(=O)(c1ccccc1)N(Cc1ccccc1)c1sc2ccccc2c1Br [Compound 175, N-(Benzyl)-N-(3-bromo-benzo[b]thiophen-2-yl)-benzenesulfonamide] |
| 8.55 | 97% |  | COc1cc(CN(c2sc3ccccc3c2Br)S(=O)(=O)c2ccccc2)ccc1F [Compound 176, N-(3-Bromo-benzo[b]thiophen-2-yl)-N-(4-fluoro-3-methoxy-benzyl)-benzenesulfonamide] |
| 7.45 | 96% |  | Cc1ccccc1CN(c1sc2ccccc2c1Br)S(=O)(=O)c1ccccc1 [Compound 178, N-(3-Bromo-benzo[b]thiophen-2-yl)-N-(2-methyl-benzyl)-benzenesulfonamide] |
| 8.44 | 98% |  | Cc1cccc(CN(c2sc3ccccc3c2Br)S(=O)(=O)c2ccccc2)c1 [Compound 179, N-(3-Bromo-benzo[b]thiophen-2-yl)-N-(3-methyl-benzyl)-benzenesulfonamide] |
| 7.37 |  | 96% | COc1cccc(S(=O)(=O)N(Cc2ccc(F)c(C(F)(F)F)c2)c2sc3ccccc3c2Cl)c1 [Compound 180, N-(3-Chloro-benzo[b]thiophen-2-yl)-N-(4-fluoro-3-trifluoromethyl-benzyl)-3-methoxy-benzenesulfonamide] |
| 7.08 |  | 95% | COc1ccc(S(=O)(=O)N(Cc2ccc(F)c(C(F)(F)F)c2)c2sc3ccccc3c2Cl)cc1 [Compound 181, N-(3-Chloro-benzo[b]thiophen-2-yl)-N-(4-fluoro-3-trifluoromethyl-benzyl)-4-methoxy-benzenesulfonamide] |
| 8.00 | 99% |  | COc1ccc(S(=O)(=O)N(Cc2ccc(F)c(C(F)(F)F)c2)c2sc3ccccc3c2Br)cc1 [Compound 182, N-(3-Bromo-benzo[b]thiophen-2-yl)-N-(4-fluoro-3-trifluoromethyl-benzyl)-4-methoxy-benzenesulfonamide] |
| 7.85 | 99% |  | CCS(=O)(=O)N(Cc1ccc(F)c(C(F)(F)F)c1)c1sc2ccccc2c1Br [Compound 183, N-(3-Bromo-benzo[b]thiophen-2-yl)-N-(4-fluoro-3-trifluoromethyl-benzyl)-ethanesulfonamide] |

| pIC50 | inhibition at 0.5 µM | inhibition at 0.2 µM | SMILES |
| --- | --- | --- | --- |
| 8.41 | 97% |  | O=S(=O)(c1cccs1)N(Cc1ccc(F)c(C(F)(F)F)c1)c1sc2ccccc2c1Br [Compound 184, N-(3-Bromo-benzo[b]thiophen-2-yl)-N-(4-fluoro-3-trifluoromethyl-benzyl)-thiophene-2-sulfonamide] |
| 8.19 |  | 102% | COc1cccc(S(=O)(=O)N(Cc2ccc(F)c(C(F)(F)F)c2)c2sc3ccccc3c2Br)c1 [Compound 185, N-(3-Bromo-benzo[b]thiophen-2-yl)-N-(4-fluoro-3-trifluoromethyl-benzyl)-3-methoxy-benzenesulfonamide] |
| 8.43 |  | 103% | O=S(=O)(c1ccsc1)N(Cc1ccc(F)c(C(F)(F)F)c1)c1sc2ccccc2c1Br [Compound 186, N-(3-Bromo-benzo[b]thiophen-2-yl)-N-(4-fluoro-3-trifluoromethyl-benzyl)-thien-3-yl-sulfonamide] |
| 8.22 |  | 100% | O=S(=O)(c1ccsc1)N(Cc1ccc(F)c(C(F)(F)F)c1)c1sc2ccccc2c1Cl [Compound 187, N-(3-Chloro-benzo[b]thiophen-2-yl)-N-(4-fluoro-3-trifluoromethyl-benzyl)-thien-3-yl-sulfonamide] |
| 7.94 |  | 100% | O=S(=O)(c1cccnc1)N(Cc1ccc(F)c(C(F)(F)F)c1)c1sc2ccccc2c1Cl [Compound 189, N-(3-Chloro-benzo[b]thiophen-2-yl)-N-(4-fluoro-3-trifluoromethyl-benzyl)-pyridin-3-yl-sulfonamide] |
| 7.82 |  | 101% | CCS(=O)(=O)N(Cc1ccc(F)c(C(F)(F)F)c1)c1sc2ccccc2c1Cl [Compound 190, N-(3-Chloro-benzo[b]thiophen-2-yl)-N-(4-fluoro-3-trifluoromethyl-benzyl)-ethanesulfonamide] |
|  |  | 105% | O=S(=O)(c1cccs1)N(Cc1ccc(F)c(C(F)(F)F)c1)c1sc2ccccc2c1Cl [Compound 191, N-(3-Chloro-benzo[b]thiophen-2-yl)-N-(4-fluoro-3-trifluoromethyl-benzyl)-thiophene-2-sulfonamide] |
| 7.22 |  | 82% | COC(=O)c1ccc(S(=O)(=O)N(Cc2ccc(F)c(C(F)(F)F)c2)c2sc3ccccc3c2Br)cc1 [Compound 192, N-(3-Bromo-benzo[b]thiophen-2-yl)-N-(4-fluoro-3-trifluoromethyl-benzyl)-4-carbomethoxy-benzenesulfonamide] |
| 7.84 |  | 101% | COC(=O)c1cccc(S(=O)(=O)N(Cc2ccc(F)c(C(F)(F)F)c2)c2sc3ccccc3c2Br)c1 [Compound 193, N-(3-Bromo-benzo[b]thiophen-2-yl)-N-(4-fluoro-3-trifluoromethyl-benzyl)-3-carbomethoxy-benzenesulfonamide] |
|  |  | 45% | COC(=O)c1ccc(S(=O)(=O)N(Cc2ccc(F)c(C(F)(F)F)c2)c2sc3ccccc3c2Cl)cc1 [Compound 194, N-(3-Chloro-benzo[b]thiophen-2-yl)-N-(4-fluoro-3-trifluoromethyl-benzyl)-4-carbomethoxy-benzenesulfonamide] |
| 7.33 |  | 88% | COC(=O)c1cccc(S(=O)(=O)N(Cc2ccc(F)c(C(F)(F)F)c2)c2sc3ccccc3c2Cl)c1 [Compound 195, N-(3-Chloro-benzo[b]thiophen-2-yl)-N-(4-fluoro-3-trifluoromethyl-benzyl)-3-carbomethoxy-benzenesulfonamide] |
| 8.10 |  | 99% | COC(=O)c1ccccc1S(=O)(=O)N(Cc1ccc(F)c(C(F)(F)F)c1)c1sc2ccccc2c1Cl [Compound 196, N-(3-Chloro-benzo[b]thiophen-2-yl)-N-(4-fluoro-3-trifluoromethyl-benzyl)-2-carbomethoxy-benzenesulfonamide] |
| 8.15 |  | 99% | COC(=O)c1ccccc1S(=O)(=O)N(Cc1ccc(F)c(C(F)(F)F)c1)c1sc2ccccc2c1Br [Compound 197, N-(3-Bromo-benzo[b]thiophen-2-yl)-N-(4-fluoro-3-trifluoromethyl-benzyl)-2-carbomethoxy-benzenesulfonamide] |
| 8.00 |  | 95% | CCS(=O)(=O)N(Cc1ccc(F)c(C(F)(F)F)c1)c1sc2ccccc2c1C#N [Compound 198, N-(3-Cyano-benzo[b]thiophen-2-yl)-N-(4-fluoro-3-trifluoromethyl-benzyl)-ethanesulfonamide] |
| 7.89 |  | 91% | CCS(=O)(=O)N(Cc1ccc(F)c(C(F)(F)F)c1)c1sc2ccccc2c1-c1cncnc1 [Compound 199, N-(4-Fluoro-3-trifluoromethyl-benzyl)-N-(3-pyrimidin-5-yl-benzo[b]thiophen-2-yl)-ethanesulfonamide] |
|  |  | 29% | CCS(=O)(=O)N(Cc1ccc(F)c(C(F)(F)F)c1)c1sc2ccccc2c1-c1ccccc1F [Compound 200, N-[3-(2-Fluoro-phenyl)-benzo[b]thiophen-2-yl]-N-(4-fluoro-3-trifluoromethyl-benzyl)-ethanesulfonamide] |
